# Experimental data reported in ChEMBL document CHEMBL3763028, “Anionic fluoroquinolones as antibacterials against biofilm-producing Pseudomonas aeruginosa” (2016).
# Assays:
# Format in all cases: functional
# Pseudomonas aeruginosa [1] = assay: Bactericidal activity against Pseudomonas aeruginosa PAO1 in Luria-Bertani broth by microdilution method
# Pseudomonas aeruginosa [2] = assay: Antipseudomonal activity against Pseudomonas aeruginosa PAO1 in Pseudomonas isolation agar assessed as bacterial growth inhibition at 10 uM by disk diffusion assay; conditions: read-out: DIZ
# Pseudomonas aeruginosa [3] = assay: Antipseudomonal activity against Pseudomonas aeruginosa PAO1 in Luria-Bertani agar assessed as bacterial growth inhibition at 10 uM by disk diffusion assay; conditions: read-out: DIZ
# Pseudomonas aeruginosa [4] = assay: Antipseudomonal activity against Pseudomonas aeruginosa PAO581 in Luria-Bertani agar assessed as bacterial growth inhibition at 10 uM by disk diffusion assay; conditions: read-out: DIZ
# Pseudomonas aeruginosa [5] = assay: Antipseudomonal activity against Pseudomonas aeruginosa PAO581 in Pseudomonas isolation agar assessed as bacterial growth inhibition at 10 uM by disk diffusion assay; conditions: read-out: DIZ
# Pseudomonas aeruginosa [6] = assay: Antipseudomonal activity against Pseudomonas aeruginosa PAO581 in Luria-Bertani broth by microdilution method
# Pseudomonas aeruginosa [7] = assay: Antipseudomonal activity against Pseudomonas aeruginosa PAO1 in Luria-Bertani broth by microdilution method
# Pseudomonas aeruginosa [8] = assay: Bactericidal activity against Pseudomonas aeruginosa PAO581 in Luria-Bertani broth by microdilution method
# Pseudomonas aeruginosa [9] = assay: Antipseudomonal activity against Pseudomonas aeruginosa PAO1 in Pseudomonas isolation agar assessed as reduction in inhibitory zone size at 10 uM by disk diffusion assay relative to Luria-Bertani agar; set-up: scale not given: the % may be the effect or the level left
# Pseudomonas aeruginosa [10] = assay: Antipseudomonal activity against Pseudomonas aeruginosa PAO581 in Pseudomonas isolation agar assessed as reduction in inhibitory zone size at 10 uM by disk diffusion assay relative to Luria-Bertani agar; set-up: scale not given: the % may be the effect or the level left
SMILES,MBC (Pseudomonas aeruginosa [1]) [µM],zone of inhibition at 10 µM (Pseudomonas aeruginosa [2]) [mm],zone of inhibition at 10 µM (Pseudomonas aeruginosa [3]) [mm],zone of inhibition at 10 µM (Pseudomonas aeruginosa [4]) [mm],zone of inhibition at 10 µM (Pseudomonas aeruginosa [5]) [mm],MIC (Pseudomonas aeruginosa [6]) [µM],MIC (Pseudomonas aeruginosa [7]) [µM],MBC (Pseudomonas aeruginosa [8]) [µM],Activity (Pseudomonas aeruginosa [9]) [%],Activity (Pseudomonas aeruginosa [10]) [%]
O=CN1CCN(c2cc3c(cc2F)c(=O)c(C(=O)O)cn3C2CC2)CC1,6.25,20,18,21,9,3.12,3.12,6.25,–,–
O=C(O)CCC(=O)N1CCN(c2cc3c(cc2F)c(=O)c(C(=O)O)cn3C2CC2)CC1,–,0,0,0,0,–,–,–,–,–
CCn1cc(C(=O)O)c(=O)c2cc(F)c(N3CCN(C(C)=O)C(C)C3)c(F)c21 (stereo unspecified),–,0,0,0,0,–,–,–,–,–
O=C([O-])c1ccccc1C(=O)N1CCN(c2cc3c(cc2F)c(=O)c(C(=O)[O-])cn3C2CC2)CC1.[K+].[K+],6.25,11,23,31,13,3.12,3.12,12.5,53,58
CCn1cc(C(=O)O)c(=O)c2cc(F)c(N3CCN(C)CC3)cc21,–,12,18,19,14,–,–,–,–,–
CC(=O)N1CCN(c2cc3c(cc2F)c(=O)c(C(=O)O)cn3C2CC2)CC1,–,0,10,0,13,–,–,–,–,–
COC(=O)CN1CCN(c2cc3c(cc2F)c(=O)c(C(=O)O)cn3C2CC2)CC1,–,0,0,0,0,–,–,–,–,–
O=C(O)c1cn(C2CC2)c2cc(N3CCN(Cc4ccccc4)CC3)c(F)cc2c1=O,–,0,0,13,0,–,–,–,–,–
CCCCCCN1CCN(c2cc3c(cc2F)c(=O)c(C(=O)O)cn3C2CC2)CC1,–,0,0,0,0,–,–,–,–,–
O=C(O)CN1CCN(c2cc3c(cc2F)c(=O)c(C(=O)O)cn3C2CC2)CC1,–,0,0,0,0,–,–,–,–,–
NC[C@H]1O[C@H](O[C@H]2[C@H](O)[C@@H](O[C@H]3O[C@H](CO)[C@@H](O)[C@H](N)[C@H]3O)[C@H](N)C[C@@H]2N)[C@H](N)C[C@@H]1O,1.56,13,18,20,17,0.78,3.12,6.25,–,–
COc1c(N2CCNC(C)C2)c(F)cc2c(=O)c(C(=O)O)cn(C3CC3)c12 (stereo unspecified),–,21,29,31,23,–,–,–,–,–
CCCCN1CCN(c2cc3c(cc2F)c(=O)c(C(=O)O)cn3C2CC2)CC1,–,0,23,13,0,–,–,–,–,–
O=C([O-])c1cn(C2CC2)c2cc(N3CCNCC3)c(F)cc2c1=O.[K+],6.25,24,30,38,26,1.56,1.56,6.25,20,32
C[C@H]1COc2c(C3(N)CC3)c(F)cc3c(=O)c(C(=O)O)cn1c23,–,17,25,30,20,–,–,–,–,–
COc1c(N2CCN(C(C)=O)C(C)C2)c(F)cc2c(=O)c(C(=O)O)cn(C3CC3)c12 (stereo unspecified),–,0,0,0,0,–,–,–,–,–
CC1(C)S[C@@H]2[C@H](NC(=O)[C@H](C(=O)O)c3ccsc3)C(=O)N2[C@H]1C(=O)O,–,0,0,0,0,–,–,–,–,–
O=C(O)CCCC(=O)N1CCN(c2cc3c(cc2F)c(=O)c(C(=O)O)cn3C2CC2)CC1,–,0,0,0,0,–,–,–,–,–
CCn1cc(C(=O)O)c(=O)c2cc(F)c(N3CCNC(C)C3)c(F)c21 (stereo unspecified),–,12,23,29,15,–,–,–,–,–
COc1c(N2C[C@@H]3CCCN[C@@H]3C2)c(F)cc2c(=O)c(C(=O)O)cn(C3CC3)c12,–,10,24,31,14,–,–,–,–,–
COC(=O)CCCN1CCN(c2cc3c(cc2F)c(=O)c(C(=O)O)cn3C2CC2)CC1,–,6,16,17,9,–,–,–,–,–
COc1c(N2C[C@@H]3CCCN(C(C)=O)[C@@H]3C2)c(F)cc2c(=O)c(C(=O)O)cn(C3CC3)c12,–,0,0,0,0,–,–,–,–,–
CC(=O)NC1(c2c(F)cc3c(=O)c(C(=O)O)cn4c3c2OC[C@@H]4C)CC1,–,0,0,0,0,–,–,–,–,–
O=C(O)CCCN1CCN(c2cc3c(cc2F)c(=O)c(C(=O)O)cn3C2CC2)CC1,–,0,0,0,0,–,–,–,–,–
